Experimental data published in US12116362B2, “Monocyclic compounds useful as GPR120 modulators” (Valo Health, Inc., priority 2016, dated 2024).

Tests used:
human GPR120 [1] = target: T1, human GPR120 (Homo sapiens, UniProt Q5NUL3); experiment: GPR120 β-Arrestin Recruitment Assay (PathHunter, CHO-K1 cells); type: cell-based; conditions: pEC50=−log(EC50) from curve fit; CHO-K1 cells, 90 min incubation; read-out: β-Arr pEC50 (converted)
T1 construct: host or cells: CHO-K1
Excerpt: This in vitro assay tests compounds' ability to activate intracellular signaling via 3-Arrestin recruitment to heterologously expressed human GPR120. This functional cellular assay utilizes enzyme fragment complementation with β-galactosidlase (β-gal) as a functional reporter (DiscoveRx PathlHunter® β-Arrestin assay platform). The human (GPR120 receptor (GenBank accession Number NM_181745) was fused in frame with the small enzyme fragment ProLink™ and co-expressed in CHO-K1 cells with a fusion protein of β-Arrestin 2 and the larger, N-terminal deletion mutant of β-gal. Activation by a GPR120 agonist stimulates binding of β-arrestin to the ProLink-tagged GPCR and forces complementation of the two enzyme fragments, resulting in the formation of an active β-gal enzyme. This interaction leads to an increase in enzyme activity that can be measured using chemiluminescent PathHunter® Detection Reagents.
One day prior to the assay, cells were seeded in a total volume of 20 μl of growth medium into white walled 384-well microplates and incubated at 37° C./5% CO2 overnight. On the day of the assay, growth medium was removed and 20 μl assay buffer (HBSS+10 mM HEPES+0.1% heat-inactivated BSA) were added to each well.
Test compounds were dissolved in 100% DMSO to a concentration of 10 mM to provide stock solutions. Serial dilutions were performed from stock solutions into assay buffer to obtain intermediate concentrations of 5-fold higher than the concentrations to be tested. 5 μl of the 5× compound solutions were added to the cells and the assay plates were incubated at 37° C. for 90 minutes. The final concentration of compounds tested in the assay ranged from 1.5 nM to 100 μM. Following incubation, 12.5 μl of PathHunter® detection reagent were added to each well, and plates were incubated at room temperature for 60 minutes. Chemiluminescence was read using an EnVision plate reader (PerkinElmer), raw data were expressed as relative light units (RLU).
(§1) To determine agonist potencies (EC50 values), non-linear least-squares curve fits of the raw data (RLU) were performed in the GraphPad Prism software package, using the 4-parameter model with variable Hill Slope:
Reported below in Table 1 are pEC50 values (pEC50=−log(EC50) from curve fit) for compounds of Formula I in this assay, β-Arr pEC50 Alternatively, percent activation at a single concentration is reported.
T1 sequence (Q5NUL3 1-377 isoform Q5NUL3-1): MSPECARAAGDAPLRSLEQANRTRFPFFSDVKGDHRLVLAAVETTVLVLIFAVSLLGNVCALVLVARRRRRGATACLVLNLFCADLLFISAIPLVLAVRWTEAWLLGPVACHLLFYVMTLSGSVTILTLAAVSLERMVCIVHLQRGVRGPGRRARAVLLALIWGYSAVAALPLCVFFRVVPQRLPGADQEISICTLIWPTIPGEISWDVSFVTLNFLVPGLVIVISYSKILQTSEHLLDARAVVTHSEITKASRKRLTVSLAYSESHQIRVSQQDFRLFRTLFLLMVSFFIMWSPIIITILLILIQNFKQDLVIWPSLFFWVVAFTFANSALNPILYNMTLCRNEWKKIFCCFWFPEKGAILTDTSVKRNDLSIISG
T1 sequence (P32121 whole entry partner): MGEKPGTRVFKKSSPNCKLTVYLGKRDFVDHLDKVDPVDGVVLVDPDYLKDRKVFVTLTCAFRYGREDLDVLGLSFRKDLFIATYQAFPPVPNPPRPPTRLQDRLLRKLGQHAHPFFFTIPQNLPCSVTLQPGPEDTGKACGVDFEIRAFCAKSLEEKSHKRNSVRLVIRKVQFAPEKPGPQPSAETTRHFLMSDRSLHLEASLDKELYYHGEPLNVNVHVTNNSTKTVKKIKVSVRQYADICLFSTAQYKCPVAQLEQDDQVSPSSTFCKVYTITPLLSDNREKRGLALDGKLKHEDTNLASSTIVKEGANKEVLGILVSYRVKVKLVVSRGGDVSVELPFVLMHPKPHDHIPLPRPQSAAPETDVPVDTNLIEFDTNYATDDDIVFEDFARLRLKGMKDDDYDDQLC

human GPR120 [2] = target: T2, human GPR120 (Homo sapiens, UniProt Q5NUL3); experiment: Human GPR120 Calcium-Release Assay (aequorin luminescence, CHO-K1 cells); type: cell-based; conditions: pEC50=−log(EC50) from curve fit; short variant of human GPR120 in CHO-K1 with Gα16 and apoaequorin; read-out: Ca2+ pEC50 (converted)
T2 construct: expressed in transfected cells; host or cells: CHO-K1 coexpressing Gα16 and mitochondrial apoaequorin
T2 sequence (Q5NUL3 1-361): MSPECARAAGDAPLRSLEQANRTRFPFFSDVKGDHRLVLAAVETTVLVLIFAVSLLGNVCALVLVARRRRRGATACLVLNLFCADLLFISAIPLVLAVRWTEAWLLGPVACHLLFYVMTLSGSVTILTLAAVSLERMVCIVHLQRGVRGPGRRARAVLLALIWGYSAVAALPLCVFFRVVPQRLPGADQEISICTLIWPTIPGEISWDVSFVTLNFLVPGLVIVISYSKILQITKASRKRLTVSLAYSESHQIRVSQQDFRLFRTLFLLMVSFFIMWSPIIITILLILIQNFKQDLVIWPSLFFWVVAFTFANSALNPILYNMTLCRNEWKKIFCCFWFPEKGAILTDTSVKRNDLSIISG
Excerpt: This in vitro assay tests compounds' ability to activate heterologously expressed human GPR120 via G-protein coupling leading to generation of inositol 1,4,5-triphosphate and mobilization of intracellular calcium. This functional cellular assay is based on the luminescence of mitochondrial aequorin following intracellular Ca^2+ release. Aequorin is a photoprotein isolated from the jellyfish Aequorea victoria. The active protein is formed in the presence of molecular oxygen from apoaequorin and its cofactor coelenterazine. Binding of Ca^2+ to the active protein induces a conformational change, resulting in oxidation of coelenterazine and subsequent blue luminescence.
The short variant of the human GPR120 receptor (GenBank accession Number AAI01176) was stably expressed in a CHO-K1 cell line coexpressing Gα16 and mitochondrial apoaequorin.
Cells were grown to mid-log phase in culture media without antibiotics, were detached with PBS/EDTA, centrifuged and resuspended in assay buffer (DMEM-F12 medium with 15 mM HEPES pH 7.0 and 0.1% protease free BSA) at a concentration of 10^6 cells/mL. Cells were incubated at room temperature for at least 4 hours with 5 μM coelenterazine h.
Test compounds were dissolved in 100% DMSO to a concentration of 20 mM to provide stock solutions. Serial dilutions were performed from stock solutions in 100% DMSO to obtain intermediate concentrations 200-fold higher than the concentrations to be tested. Each sample was diluted 100-fold into assay buffer. 50 μl of these compound solutions were dispensed into each well of 96-well assay plates. The final concentration of compounds tested in the assay ranged from 5 nM to 100 μM. α-Linolenic acid was used as a reference compound. Each test was performed in duplicate.
To start the assay, 50 μl of cell suspension were added to each well of the assay plate. The resulting luminescence was recorded using a Hamamatsu Functional Drug Screening System 6000 (FDSS 6000), and raw data were expressed as relative light units (RLU).
as §1
Reported below in Table 1 are pEC50 values (pEC50=−log(EC50) from curve fit) for representative compounds of Formula I in this assay, Ca2+pEC50.

EC50 (human GPR120 [1]) [nM]	EC50 (human GPR120 [2]) [nM]	SMILES
631	1000	O=S1(=O)c2ccccc2CN1c1cc(C(F)(F)F)nc(Oc2ccc(Cl)cc2)n1 [Compound 97]
501	158	COc1cc(N2Cc3ccccc3S2(=O)=O)nc(Oc2ccc(F)cc2)n1 [Compound 99]
398	> 100	COc1cc(Oc2ccc(F)cc2)nc(N2Cc3ccccc3S2(=O)=O)n1 [Compound 101]
1000	200	Cc1cc(N2Cc3ccccc3S2(=O)=O)nc(Oc2ccc(F)cc2)n1 [Compound 106]

Continued, molecule first:

SMILES	EC50 (human GPR120 [1]) [nM]	EC50 (human GPR120 [2]) [nM]
O=S1(=O)c2ccccc2CN1c1cc(C(F)(F)F)nc(Oc2ccccc2)n1 [Compound 98]	794	2510
O=S1(=O)c2ccccc2CN1c1nccc(Oc2cccnc2)n1 [Compound 114]	12600	15800
O=S1(=O)c2ccccc2CN1c1cccc(Oc2cccnc2)n1 [Compound 121]	1580	200
O=C1c2ccccc2CN1c1cccc(Oc2cccnc2)n1 [Compound 122]	> 10000	501
O=S1(=O)c2ccccc2CN1c1cccc(Oc2cccc(Cl)c2)n1 [Compound 123]	> 31600	> 100000
Cc1cc(OC2CCC2)nc(N2Cc3ccccc3S2(=O)=O)c1 [Compound 128]	39.8	79.4
Cc1cc(Oc2ccc(Cl)cc2)nc(N2Cc3ccccc3S2(=O)=O)c1 [Compound 131]	158	316
O=S1(=O)c2ccccc2CN1c1cncc(Oc2cccnc2)n1 [Compound 142]	39800	1260
